Results: patent US4766133A, “(Bezimidazol-2-yl)-pyridinium compounds” (priority 1985, dated 1988)
Where two headings read alike, the source gives them in different places.

Assays:
[1] = system: indomethacin-induced lesions of the stomach; test: anti-ulcer activity (indomethacin-induced lesions of the stomach); format: in vivo; settings: Rattus norvegicus, po, read-out: Anti-ulcer, ED50
Method: The experimental procedure described hereinafter was used to determine the anti-ulcer activity:
Groups each comprising 8 male rats with a body weight of 130-150 g are used for each dosage of a test substance. Before the beginning of the experiment the animals receive no food for 24 hours, but receive water ad libitum. Various dosages of the substances to be tested (suspended in 0.5% tragacanth) or the vehicle alone (controls) are administered twice perorally, namely 1 hour before and 2 hours after the peroral administration of 20 mg/kg of indomethacin. […] The animals are killed 6 hours after the first administration of the substanoe under investigation (or of the vehicle alone). The rats which remain protected from the occurrence of macroscopically visible lesions to the mucous membrane of the stomach are counted.

[2] = system: gastric acid secretion stimulated by 4-methylhistamine; test: gastric acid secretion-inhibiting activity (Heidenhain type pouch, 4-methylhistamine stimulated); format: in vivo, beagle hounds (dog); settings: Canis lupus familiaris, read-out: Gastric acid secretion-inhibition, ED50
Method: The experimental procedure described hereinafter was used to determine the gastric acid secretion-inhibiting activity:
In the pouch there is fitted a steel cannula which is conducted externally through the abdominal wall. Before each experiment the animals receive no food for 18 hours, but receive water ad libitum. They are conscious and standing during the experiment and their gastric acid secretion is stimulated by the intravenous infusion of 4-methylhistamine, a selective agonist of the histamine H2 -receptors. The gastric acid production is determined in 15 minute fractions of the stomach pouch juioe. As soon as the gastric acid production has a constant value, the substances to be tested are administered orally as a dry powder filled into gelatine capsules.

[3] = acute toxicity (single oral administration to mice); settings: mouse, in vivo, read-out: Toxicity, LD 50
Text: In the following Table there are given for a series of representative compounds of formula I the results of the testing with respect to their anti-ulcer activity and to their gastric secretion-inhibiting activity. Moreover, this Table contains data concerning the acute toxicity (LD50 in the case of single oral administration to mice).

[4] = male rats, p.o. twice, 1 h before and 2 h after 20 mg/kg indomethacin p.o., 50% of animals protected from lesions
[5] = conscious beagle hounds, Heidenhain type pouch, 4-methylhistamine i.v. infusion, oral dry powder in gelatine capsules, 50% inhibition

Row | Compound | ED50 [1, 4] | ED50 [2, 5] | LD50 [3] | ED50 [1] | ED50 ([2]; po)
1 | COc1cc[n+](-c2nc3cc4c(cc3[nH]2)C(C)(C)C(=O)C4(C)C)c(CSSCCC(N)C(=O)O)c1C.[Cl-] (racemic) [P, 2-[[[(RS)-3-Amino-3-carboxypropyl]dithio]methyl]-4-methoxy-3-methyl-1-(1,5,6,7-tetrahydro-5,5,7,7-tetramethyl-6-oxoindeno[5,6-d]imidazol-2-yl)pyridinium chloride] | 1.9 mg/kg | 4.1 mg/kg | 312 to 625 mg/kg |  | 
2 | CCCSSCc1c(C)c(OC)cc[n+]1-c1nc2ccc(C(F)(F)F)cc2[nH]1.[Cl-] [A, 2-[(propyldithio)methyl]-4-methoxy-3-methyl-1-[5-(trifluoromethyl)-2-benzimidazolyl]pyridinium chloride] | 1.2 mg/kg | 1.5 mg/kg | > 5000 mg/kg |  | 
3 | COc1cc[n+](-c2nc3ccc(C(F)(F)F)cc3[nH]2)c(CSSC[C@H](N)C(=O)O)c1C.[Cl-] [B, 2-[[[(R)-2-Amino-2-carboxyethyl]dithio]methyl]-4-methoxy-3-methyl-1-[5-(trifluoromethyl)-2-benzimidazolyl]pyridinium chloride] | 2.5 mg/kg | 2.8 mg/kg | 1250 to 2500 mg/kg |  | 
4 | COc1cc[n+](-c2nc3cc(C(F)(F)F)ccc3[nH]2)c(CSSC[C@H](NC(=O)CC[C@H](N)C(=O)O)C(=O)NCC(=O)O)c1C [C, 2-[[[(R)-2-[(S)-4-Amino-4-carboxybutyramido]-2-[(carboxymethyl)carbamoyl]ethyl]dithio]methyl]-4-methoxy-3-methyl-1-[(5-trifluoromethyl)-2-benzimidazolyl]pyridinium chloride] | 3 mg/kg | 3 mg/kg | 1250 to 2500 mg/kg |  | 
5 | CCCCCCSSCc1c(C)c(OC)cc[n+]1-c1nc2ccc(C(F)(F)F)cc2[nH]1.[Cl-] [D, 2-[(Hexyldithio)methyl]-4-methoxy-3-methyl-1-[5-(trifluoromethyl) -2-benzimidazolyl]pyridinium chloride] | 1.9 mg/kg | 6.8 mg/kg | > 5000 mg/kg |  | 
6 | COc1cc[n+](-c2nc3ccc(C(F)(F)F)cc3[nH]2)c(CSSc2ccccc2Cl)c1C.[Cl-] [E, 2-[[(o-Chlorophenyl)dithio]methyl]-4-methoxy-3-methyl-1-[5-(trifluoromethyl)-2-benzimidazolyl]pyridinium chloride] | 2.1 mg/kg | 6 mg/kg | > 5000 mg/kg |  | 
7 | CCSSCc1c(C)c(OC)cc[n+]1-c1nc2ccc(C(F)(F)F)cc2[nH]1.[Cl-] [F, 2-[(Ethyldithio)methyl]-4-methoxy-3-methyl-1-[5-(trifluoromethyl)-2-benzimidazolyl]pyridinium chloride] | 1.7 mg/kg | 1.6 mg/kg | 1250 to 2500 mg/kg |  | 
8 | COc1cc[n+](-c2nc3cc(C(F)(F)F)ccc3[nH]2)c(CSSCCN)c1C [G, 2-[[(2-Aminoethyl)dithio]methyl]-4-methoxy-3-methyl-b 1-[5-(trifluoromethyl)-2-benzimidazolyl]pyridinium chloride] | 2.3 mg/kg | 1.5 mg/kg | 312 to 625 mg/kg |  | 
9 | COc1cc[n+](-c2nc3cc4c(cc3[nH]2)C(C)(C)C(=O)C4(C)C)c(CSSc2cccc(Cl)c2)c1C [H, 2-[[(m-Chlorophenyl)dithio]methyl]-4-methoxy-3-methyl-1-(1,5,6,7-tetrahydro-5,5,7,7-tetramethyl-6-oxoindeno[5,6d]imidazol-2-yl)pyridinium chloride] | 1.8 mg/kg | 6.2 mg/kg | 1250 to 2500 mg/kg |  | 
10 | COc1cc[n+](-c2nc3cc4c(cc3[nH]2)C(C)(C)C(=O)C4(C)C)c(CSSC[C@H](N)C(=O)O)c1C.[Cl-] [I, 2-[[[(R)-2-Amino-2-carboxyethyl]dithio]methyl]-4-methoxy-3-methyl-1-(1,5,6,7-tetrahydro-5,5,7,7-tetramethyl-6-oxoindeno[5,6-d]imidazol-2-yl)pyridinium chloride] | 2.3 mg/kg | 3.9 mg/kg | 312 to 625 mg/kg |  | 
11 | CCOC(=O)CC(SSCc1c(C)c(OC)cc[n+]1-c1nc2ccc(C(F)(F)F)cc2[nH]1)C(=O)OCC.[Cl-] (centres unmarked) [J, 2-[[[1,2-Bis-(ethoxycarbonyl)ethyl]dithio]methyl]-4-methoxy-3-methyl-1-[5-(trifluoromethyl)-2-benzimidazolyl]pyridinium chloride] | 2.4 mg/kg | 2.2 mg/kg | 1250 to 2500 mg/kg |  | 
12 | CCSSCc1c(C)c(OC)cc[n+]1-c1nc2cc3c(cc2[nH]1)C(C)(C)C(=O)C3(C)C.[Cl-] [K, 2-[(Ethyldithio)methyl]-4-methoxy-3-methyl-1-(1,5,6,7-tetrahydro-5,5,7,7-tetramethyl-6-oxoindeno[5,6-d]-imidazol-2-yl)pyridinium chloride] | 2.3 mg/kg | 6.5 mg/kg | 312 to 625 mg/kg |  | 
13 | CCCSSCc1c(C)c(OC)cc[n+]1-c1nc2cc3c(cc2[nH]1)C(C)(C)C(=O)C3(C)C.[Cl-] [L, 4-Methoxy-3-methyl-2-[(propyldithio)methyl]-1-(1,5,6,7-tetrahydro-5,5,7,7-tetramethyl-6-oxoindeno[5,6-d]-imidazol-2-yl)pyridinium chloride] | 1.6 mg/kg | 3.4 mg/kg | 312 to 625 mg/kg |  | 
14 | CCOC(=O)[C@@H](N)CSSCc1c(C)c(OC)cc[n+]1-c1nc2cc3c(cc2[nH]1)C(C)(C)C(=O)C3(C)C.[Cl-] [M, 2-[[[(R)-2-Amino-2-(ethoxycarbonyl)ethyl]dithio]methyl]-4-methoxy-3-methyl-1-(1,5,6,7-tetrahydro-5,5,7,7-tetramethyl-6-oxoindeno[5,6-d]imidazol-2-yl)pyridinium chloride] | 1.6 mg/kg | 4.6 mg/kg | 312 to 625 mg/kg |  | 
15 | COc1cc[n+](-c2nc3cc4c(cc3[n-]2)C(C)(C)C(=O)C4(C)C)c(CSSCCN(C)C)c1C [N] |  |  |  | 1.5 mg/kg | 3.7 mg/kg
16 | COc1cc[n+](-c2nc3cc4c(cc3[nH]2)C(C)(C)C(=O)C4(C)C)c(CSSCCO)c1C.[Cl-] [O, 2-[[(2-Hydroxyethyl)dithio]methyl]-4-methoxy-3-methyl-1-(1,5,6,7-tetrahydro-5,5,7,7-tetramethyl-6-oxoindeno[5,6-d]imidazol-2-yl)pyridinium chloride] | 2.3 mg/kg | 2.9 mg/kg | 312 to 625 mg/kg |  | 
17 | COc1cc[n+](-c2nc3cc4c(cc3[nH]2)C(C)(C)C(=O)C4(C)C)c(CSSC2CCCC2)c1C.[Cl-] [Q, 2-[(Cyclopentyldithio)methyl]-4-methoxy-3-methyl-1-(1,5,6,7-tetrahydro-5,5,7,7-tetramethyl-6-oxoindeno[5,6-d]imidazol-2-yl)pyridinium chloride] | 1.6 mg/kg | 4.9 mg/kg | 312 to 625 mg/kg |  | 
